ChEMBL document CHEMBL4507274 (2021)

Assays:
[1] = biological target: Serine/threonine-protein kinase NIM1 (Homo sapiens) (UniProt Q8IY84); details: Compound concentration 100.0 nM
[2] = biological target: Serine/threonine-protein kinase PAK 6 (Homo sapiens) (UniProt Q9NQU5); details: Compound concentration 100.0 nM
[3] = biological target: Ribosomal protein S6 kinase alpha-3 (Homo sapiens) (UniProt P51812); details: Compound concentration 100.0 nM
[4] = biological target: NUAK family SNF1-like kinase 1 (Homo sapiens) (UniProt O60285); details: Compound concentration 100.0 nM
Chain of NUAK family SNF1-like kinase 1 (Homo sapiens) (O60285 whole entry): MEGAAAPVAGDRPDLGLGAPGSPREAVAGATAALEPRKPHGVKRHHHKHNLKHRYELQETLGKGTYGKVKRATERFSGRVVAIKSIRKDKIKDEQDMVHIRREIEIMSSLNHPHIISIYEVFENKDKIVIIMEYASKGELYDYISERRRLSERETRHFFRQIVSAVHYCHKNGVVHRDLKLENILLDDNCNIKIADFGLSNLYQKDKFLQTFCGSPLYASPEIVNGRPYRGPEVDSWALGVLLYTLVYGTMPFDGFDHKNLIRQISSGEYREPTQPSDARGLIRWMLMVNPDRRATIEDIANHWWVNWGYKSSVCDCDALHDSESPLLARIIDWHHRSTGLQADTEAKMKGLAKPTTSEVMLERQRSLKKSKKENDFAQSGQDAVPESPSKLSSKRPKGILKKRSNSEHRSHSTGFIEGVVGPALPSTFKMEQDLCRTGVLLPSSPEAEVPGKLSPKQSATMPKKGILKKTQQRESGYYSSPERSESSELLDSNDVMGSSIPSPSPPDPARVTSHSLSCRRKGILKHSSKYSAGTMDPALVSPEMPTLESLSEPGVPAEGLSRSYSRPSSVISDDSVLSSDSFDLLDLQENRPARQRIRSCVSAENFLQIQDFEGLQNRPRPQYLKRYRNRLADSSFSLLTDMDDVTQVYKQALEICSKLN

[5] = biological target: Serine/threonine-protein kinase 32A (Homo sapiens) (UniProt Q8WU08); details: Compound concentration 100.0 nM
[6] = biological target: Alpha-1B adrenergic receptor (Homo sapiens) (UniProt P35368); details: Compound concentration 10.0 uM
[7] = biological target: Tyrosine-protein kinase ABL1 (Homo sapiens) (UniProt P00519); details: Compound concentration 100.0 nM
[8] = biological target: Interleukin-1 receptor-associated kinase 3 (Homo sapiens) (UniProt Q9Y616); details: Compound concentration 100.0 nM
[9] = biological target: SRSF protein kinase 1 (Homo sapiens) (UniProt Q96SB4); details: Compound concentration 100.0 nM
[10] = biological target: Tyrosine-protein kinase JAK2 (Homo sapiens) (UniProt O60674); details: Compound concentration 100.0 nM
[11] = biological target: Ephrin type-A receptor 4 (Homo sapiens) (UniProt P54764); details: Compound concentration 100.0 nM
[12] = biological target: Serine/threonine-protein kinase ULK1 (Homo sapiens) (UniProt O75385); details: Compound concentration 100.0 nM
Chain of Serine/threonine-protein kinase ULK1 (Homo sapiens) (O75385 whole entry): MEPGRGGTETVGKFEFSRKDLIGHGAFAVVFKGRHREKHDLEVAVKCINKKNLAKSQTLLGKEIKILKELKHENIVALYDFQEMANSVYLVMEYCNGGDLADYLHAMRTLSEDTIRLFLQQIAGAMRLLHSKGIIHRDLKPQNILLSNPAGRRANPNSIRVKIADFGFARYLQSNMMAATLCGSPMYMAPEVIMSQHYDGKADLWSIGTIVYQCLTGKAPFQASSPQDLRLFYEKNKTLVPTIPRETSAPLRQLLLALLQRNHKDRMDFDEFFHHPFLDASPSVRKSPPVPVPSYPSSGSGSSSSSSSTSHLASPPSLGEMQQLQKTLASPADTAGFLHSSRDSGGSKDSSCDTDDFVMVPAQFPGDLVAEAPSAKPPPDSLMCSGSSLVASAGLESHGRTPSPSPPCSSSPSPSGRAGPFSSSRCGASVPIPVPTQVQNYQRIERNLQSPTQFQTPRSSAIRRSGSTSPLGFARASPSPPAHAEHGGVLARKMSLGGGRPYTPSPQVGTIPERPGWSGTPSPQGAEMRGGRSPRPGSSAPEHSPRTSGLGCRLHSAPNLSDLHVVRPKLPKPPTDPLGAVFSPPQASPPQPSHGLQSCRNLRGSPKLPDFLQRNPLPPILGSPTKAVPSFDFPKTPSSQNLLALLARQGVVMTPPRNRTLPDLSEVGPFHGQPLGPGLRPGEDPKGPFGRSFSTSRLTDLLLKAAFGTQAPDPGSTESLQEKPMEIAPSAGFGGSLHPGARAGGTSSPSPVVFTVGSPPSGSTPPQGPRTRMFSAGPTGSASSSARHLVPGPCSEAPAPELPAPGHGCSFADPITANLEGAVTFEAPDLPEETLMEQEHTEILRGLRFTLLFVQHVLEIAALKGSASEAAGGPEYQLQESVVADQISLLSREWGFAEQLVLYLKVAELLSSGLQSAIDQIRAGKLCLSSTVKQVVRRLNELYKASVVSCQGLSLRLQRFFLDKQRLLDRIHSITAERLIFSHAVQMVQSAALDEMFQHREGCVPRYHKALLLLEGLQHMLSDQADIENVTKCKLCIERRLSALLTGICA

[13] = biological target: Histamine H3 receptor (Homo sapiens) (UniProt Q9Y5N1); details: Compound concentration 10.0 uM
[14] = biological target: Ribosomal protein S6 kinase alpha-5 (Homo sapiens) (UniProt O75582); details: Compound concentration 100.0 nM
[15] = biological target: Serine/threonine-protein kinase LATS2 (Homo sapiens) (UniProt Q9NRM7); details: Compound concentration 100.0 nM
[16] = tested on: Leucine-rich repeat serine/threonine-protein kinase 2 (Homo sapiens), Q5S007 [G2019S]; details: Compound concentration 100.0 nM
[17] = biological target: Serine/threonine-protein kinase Nek9 (Homo sapiens) (UniProt Q8TD19); details: Compound concentration 100.0 nM
[18] = biological target: T1, Calcium/calmodulin-dependent protein kinase type IV (Homo sapiens) (UniProt Q16566); details: Compound concentration 100.0 nM
T1 sequence (whole entry): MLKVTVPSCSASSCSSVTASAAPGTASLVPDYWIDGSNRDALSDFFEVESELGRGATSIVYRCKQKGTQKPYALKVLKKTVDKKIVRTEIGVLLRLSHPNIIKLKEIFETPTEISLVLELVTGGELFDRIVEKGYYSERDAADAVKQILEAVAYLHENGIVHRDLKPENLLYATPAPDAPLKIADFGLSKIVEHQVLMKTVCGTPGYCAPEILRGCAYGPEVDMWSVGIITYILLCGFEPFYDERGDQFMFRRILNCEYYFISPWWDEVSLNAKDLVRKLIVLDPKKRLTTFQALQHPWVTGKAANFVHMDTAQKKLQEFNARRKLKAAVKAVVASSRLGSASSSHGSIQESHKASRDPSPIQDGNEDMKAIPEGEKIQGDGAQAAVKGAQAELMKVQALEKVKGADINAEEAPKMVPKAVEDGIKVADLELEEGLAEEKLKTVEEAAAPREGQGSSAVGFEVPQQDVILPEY

[19] = biological target: Serine/threonine-protein kinase MARK2 (Homo sapiens) (UniProt Q7KZI7); details: Compound concentration 100.0 nM
[20] = biological target: T2, Dual specificity mitogen-activated protein kinase kinase 7 (Homo sapiens) (UniProt O14733); details: Compound concentration 100.0 nM
T2 sequence (whole entry): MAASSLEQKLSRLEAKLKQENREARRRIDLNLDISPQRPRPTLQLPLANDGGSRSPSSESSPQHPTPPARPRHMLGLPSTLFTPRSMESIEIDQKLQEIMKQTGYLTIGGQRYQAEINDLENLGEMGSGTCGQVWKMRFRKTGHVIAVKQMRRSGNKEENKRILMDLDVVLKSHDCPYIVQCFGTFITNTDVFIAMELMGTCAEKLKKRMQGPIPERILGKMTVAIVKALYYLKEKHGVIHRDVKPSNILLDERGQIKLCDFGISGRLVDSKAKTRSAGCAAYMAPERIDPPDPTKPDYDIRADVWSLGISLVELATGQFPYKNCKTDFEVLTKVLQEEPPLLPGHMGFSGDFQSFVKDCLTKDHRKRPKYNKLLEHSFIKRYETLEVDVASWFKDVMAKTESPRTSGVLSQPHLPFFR

[21] = biological target: Myosin-IIIb (Homo sapiens) (UniProt Q8WXR4); details: Compound concentration 100.0 nM
[22] = biological target: Kappa-type opioid receptor (Homo sapiens, UniProt P41145); experiment: GPCRScan assay: inhibition of KOR; set-up: radioligand conc. used [nm] 0.6 – 1.2, parental cells stable HEK
Chain of Kappa-type opioid receptor (P41145 whole entry): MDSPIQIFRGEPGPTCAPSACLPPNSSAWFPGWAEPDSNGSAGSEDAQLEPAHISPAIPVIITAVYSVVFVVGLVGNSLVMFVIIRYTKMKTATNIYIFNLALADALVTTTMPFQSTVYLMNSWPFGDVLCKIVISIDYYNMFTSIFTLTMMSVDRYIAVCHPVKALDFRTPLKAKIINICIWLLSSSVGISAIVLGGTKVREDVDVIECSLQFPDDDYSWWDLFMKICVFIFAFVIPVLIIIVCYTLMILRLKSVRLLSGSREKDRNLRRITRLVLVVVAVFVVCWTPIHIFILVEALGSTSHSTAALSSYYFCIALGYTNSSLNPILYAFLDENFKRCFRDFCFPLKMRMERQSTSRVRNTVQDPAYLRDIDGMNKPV

[23] = biological target: Dual specificity testis-specific protein kinase 1 (Homo sapiens) (UniProt Q15569); details: Compound concentration 100.0 nM
[24] = biological target: Tyrosine-protein kinase Blk (Homo sapiens) (UniProt P51451); details: Compound concentration 100.0 nM
[25] = biological target: Ribosomal protein S6 kinase alpha-1 (Homo sapiens) (UniProt Q15418); details: Compound concentration 100.0 nM
[26] = biological target: Receptor-interacting serine/threonine-protein kinase 2 (Homo sapiens) (UniProt O43353); details: Compound concentration 100.0 nM
[27] = biological target: Rho-associated protein kinase 2 (Homo sapiens, UniProt O75116); details: Compound concentration 100.0 nM
[28] = tested on: Tyrosine-protein kinase ABL1 (Homo sapiens), P00519 [T315I]; details: Compound concentration 100.0 nM
[29] = biological target: Membrane-associated tyrosine- and threonine-specific cdc2-inhibitory kinase (Homo sapiens) (UniProt Q99640); details: Compound concentration 100.0 nM
[30] = biological target: Inhibitor of nuclear factor kappa-B kinase subunit epsilon (Homo sapiens) (UniProt Q14164); details: Compound concentration 100.0 nM
[31] = biological target: LIM domain kinase 2 (Homo sapiens) (UniProt P53671); details: Compound concentration 100.0 nM
[32] = biological target: Receptor-type tyrosine-protein kinase FLT3 (Homo sapiens) (UniProt P36888); details: Compound concentration 100.0 nM
[33] = biological target: Ribosomal protein S6 kinase alpha-6 (Homo sapiens) (UniProt Q9UK32); details: Compound concentration 100.0 nM
Chain of Ribosomal protein S6 kinase alpha-6 (Homo sapiens) (Q9UK32 whole entry): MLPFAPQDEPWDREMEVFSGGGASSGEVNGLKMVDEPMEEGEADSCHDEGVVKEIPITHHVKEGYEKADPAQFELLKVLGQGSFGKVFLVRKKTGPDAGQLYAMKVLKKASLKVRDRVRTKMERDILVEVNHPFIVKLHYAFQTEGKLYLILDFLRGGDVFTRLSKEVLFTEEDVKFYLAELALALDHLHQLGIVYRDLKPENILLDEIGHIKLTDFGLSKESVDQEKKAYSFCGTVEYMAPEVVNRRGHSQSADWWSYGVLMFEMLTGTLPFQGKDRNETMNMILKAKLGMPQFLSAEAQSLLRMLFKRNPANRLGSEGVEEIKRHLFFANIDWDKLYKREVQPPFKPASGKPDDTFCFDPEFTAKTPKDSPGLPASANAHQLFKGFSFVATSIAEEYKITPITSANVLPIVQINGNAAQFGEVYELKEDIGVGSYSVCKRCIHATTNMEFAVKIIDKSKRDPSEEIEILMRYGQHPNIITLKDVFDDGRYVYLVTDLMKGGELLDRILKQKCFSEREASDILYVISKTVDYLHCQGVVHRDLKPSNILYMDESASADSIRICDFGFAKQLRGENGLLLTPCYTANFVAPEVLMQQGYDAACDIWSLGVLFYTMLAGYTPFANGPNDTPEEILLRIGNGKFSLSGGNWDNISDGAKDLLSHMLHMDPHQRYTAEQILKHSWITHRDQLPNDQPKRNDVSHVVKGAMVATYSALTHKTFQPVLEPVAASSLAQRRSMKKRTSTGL

Chain of Serine/threonine-protein kinase NIM1 (Homo sapiens) (Q8IY84 whole entry): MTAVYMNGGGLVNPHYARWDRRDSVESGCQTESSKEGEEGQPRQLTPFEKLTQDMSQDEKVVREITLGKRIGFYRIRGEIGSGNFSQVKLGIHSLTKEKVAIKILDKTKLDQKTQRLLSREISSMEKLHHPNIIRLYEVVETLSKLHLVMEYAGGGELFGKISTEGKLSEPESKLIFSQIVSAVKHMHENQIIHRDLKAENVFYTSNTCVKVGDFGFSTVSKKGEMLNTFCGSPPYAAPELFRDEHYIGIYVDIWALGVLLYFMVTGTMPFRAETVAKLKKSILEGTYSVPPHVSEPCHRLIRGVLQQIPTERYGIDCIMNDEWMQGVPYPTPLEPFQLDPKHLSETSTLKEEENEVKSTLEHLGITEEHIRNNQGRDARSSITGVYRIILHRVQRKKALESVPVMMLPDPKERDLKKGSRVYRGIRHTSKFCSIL
Chain of Serine/threonine-protein kinase PAK 6 (Homo sapiens) (Q9NQU5 whole entry, looked up): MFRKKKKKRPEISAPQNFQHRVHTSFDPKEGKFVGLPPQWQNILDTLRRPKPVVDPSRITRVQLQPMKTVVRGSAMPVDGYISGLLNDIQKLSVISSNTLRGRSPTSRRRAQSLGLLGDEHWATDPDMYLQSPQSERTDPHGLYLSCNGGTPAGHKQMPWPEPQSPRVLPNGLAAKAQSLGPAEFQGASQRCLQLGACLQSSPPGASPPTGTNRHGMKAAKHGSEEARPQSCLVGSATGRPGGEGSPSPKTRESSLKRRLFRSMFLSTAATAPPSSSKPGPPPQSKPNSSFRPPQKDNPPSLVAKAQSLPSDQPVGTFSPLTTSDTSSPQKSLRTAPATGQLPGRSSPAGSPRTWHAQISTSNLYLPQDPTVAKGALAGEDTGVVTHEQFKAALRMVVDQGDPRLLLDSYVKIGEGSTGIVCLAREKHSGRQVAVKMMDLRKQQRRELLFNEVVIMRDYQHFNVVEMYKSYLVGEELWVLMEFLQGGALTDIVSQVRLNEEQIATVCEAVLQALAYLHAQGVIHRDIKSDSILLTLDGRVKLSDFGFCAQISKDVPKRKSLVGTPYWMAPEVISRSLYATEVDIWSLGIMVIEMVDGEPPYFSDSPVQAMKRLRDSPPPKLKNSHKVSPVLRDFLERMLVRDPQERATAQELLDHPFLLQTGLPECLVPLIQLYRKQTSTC
Chain of Ribosomal protein S6 kinase alpha-3 (Homo sapiens) (P51812 whole entry): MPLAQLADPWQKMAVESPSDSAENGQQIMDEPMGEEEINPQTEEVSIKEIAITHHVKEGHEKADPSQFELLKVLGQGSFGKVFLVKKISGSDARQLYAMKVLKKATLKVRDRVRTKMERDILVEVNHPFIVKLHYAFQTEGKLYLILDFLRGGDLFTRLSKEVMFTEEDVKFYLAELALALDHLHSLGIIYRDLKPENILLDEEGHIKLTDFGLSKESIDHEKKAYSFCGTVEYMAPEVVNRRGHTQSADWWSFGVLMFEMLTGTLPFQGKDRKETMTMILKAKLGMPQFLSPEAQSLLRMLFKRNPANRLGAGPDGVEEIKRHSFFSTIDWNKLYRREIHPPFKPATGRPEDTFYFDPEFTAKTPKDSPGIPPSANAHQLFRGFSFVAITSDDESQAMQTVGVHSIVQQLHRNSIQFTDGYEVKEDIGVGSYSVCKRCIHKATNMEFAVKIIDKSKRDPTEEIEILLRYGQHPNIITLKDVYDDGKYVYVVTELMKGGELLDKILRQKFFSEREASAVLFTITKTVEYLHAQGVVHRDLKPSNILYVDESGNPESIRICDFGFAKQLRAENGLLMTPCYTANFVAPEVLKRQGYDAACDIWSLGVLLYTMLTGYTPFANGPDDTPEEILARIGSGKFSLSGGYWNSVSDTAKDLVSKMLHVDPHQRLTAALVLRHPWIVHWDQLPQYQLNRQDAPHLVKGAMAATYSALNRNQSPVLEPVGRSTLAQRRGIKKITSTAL

| SMILES | residual activity [1] [%] | residual activity [2] [%] | residual activity [3] [%] | residual activity [4] [%] | residual activity [5] [%] | inhibition [6] [%] | residual activity [7] [%] | residual activity [8] [%] | residual activity [9] [%] | residual activity [10] [%] | residual activity [11] [%] | residual activity [12] [%] | inhibition [13] [%] | residual activity [14] [%] | residual activity [15] [%] | residual activity [16] [%] | residual activity [17] [%] | residual activity [18] [%] | residual activity [19] [%] | residual activity [20] [%] | also measured |
| --- | --- | --- | --- | --- | --- | --- | --- | --- | --- | --- | --- | --- | --- | --- | --- | --- | --- | --- | --- | --- | --- |
| Cc1c[nH]c2nccc(Oc3c(F)cc(Nc4cc(Cl)nc(N)n4)cc3F)c12 [BAY-549] | 75 | 82 | 79 | 91 | 86 | 17 | 97 | 85 | 100 | 75 | 100 | 92 | 8.13 | 100 | 0.7 | 100 | 96 | 100 | 100 | 67 | residual activity [21]: 91%; Ki [22]: 187 nM; residual activity [23]: 100%; residual activity [24]: 90%; residual activity [25]: 100%; residual activity [26]: 92%; residual activity [27]: 0.9%; residual activity [28]: 84%; residual activity [29]: 98%; residual activity [30]: 93%; residual activity [31]: 79%; residual activity [32]: 75%; residual activity [33]: 95% |
| Cn1cc(Cl)c2c(Oc3c(F)cc(Nc4cc(Cl)nc(N)n4)cc3F)ccnc21 [BAY-4900] | 93 | 100 | 71 | 96 | 89 | 18.3 | 97 | 97 | 85 | 72 | 100 | 93 | 31 | 100 | 91 | 100 | 100 | 96 | 100 | 84 | residual activity [21]: 57%; Ki [22]: 391 nM; residual activity [23]: 100%; residual activity [24]: 96%; residual activity [25]: 100%; residual activity [26]: 83%; residual activity [27]: 83%; residual activity [28]: 86%; residual activity [29]: 100%; residual activity [30]: 100%; residual activity [31]: 100%; residual activity [32]: 83%; residual activity [33]: 72% |
